# Reference: patent publication US20100267561A1, “HERBICIDAL PYRIDAZINONE DERIVATIVES” (priority 2007, published 2010)
# What was measured:
# Experiment in all cases: Test E pre-/postemergence plant response
# Format in all cases: in vivo
# [1] = tested on: Italian ryegrass (Lolium multiflorum); settings: scale 0 to 100
# Source text: (§1) Seeds of plant species selected from bermudagrass (Cynodon dactylon), Surinam grass (Brachiaria decumbens), large crabgrass (Digitaria sanguinalis), green foxtail (Setaria viridis), goosegrass (Eleusine indica), johnsongrass (Sorghum halepense), kochia (Kochia scoparia), pitted morningglory (Ipomoea lacunosa), purple nutsedge (Cyperus rotundus), common ragweed (Ambrosia elation), black mustard (Brassica nigra), guineagrass (Panicum maximum), dallisgrass (Paspalum dilatatum), barnyardgrass (Echinochloa crus-galli), southern (S.) sandbur (Cenchrus echinatus), common sowthistle (Sonchus oleraceous), prickly sida (Sida spinosa), Italian ryegrass (Lolium multiflorum), common purslane (Portulaca oleracea), broadleaf signalgrass (Brachiaria platyphylla), common groundsel (Senecio vulgaris), common chickweed (Stellaria media), Virginia (V.) dayflower (Commelina virginica), tropical (T.) spiderwort (Commelina benghalensis), annual bluegrass (Poa annua), naked crabgrass (Digitaria nuda), itchgrass (Rottboellia cochinchinensis), quackgrass (Elytrigia repens), Canada horseweed (Conyza canadensis), field bindweed (Convolvulus arvensis), spanishneedles (Bidens bipinnata), common mallow (Malva sylvestris) and Russian thistle (Salsola kali) were planted and treated preemergence with test chemicals formulated in a non-phytotoxic solvent mixture which included a surfactant. At the same time, plants selected from these weed species were treated with postemergence applications of some of the test chemicals formulated in the same manner. Plants ranged in height from 2 to 18 cm (1- to 4-leaf stage) for postemergence treatments.
# (§2) Treated plants and controls were maintained in a greenhouse for 14 to 21 days, after which time all species were compared to controls and visually evaluated. Plant response ratings, summarized in Table E, are based on a scale of 0 to 100 where 0 is no effect and 100 is complete control. A dash (-) response means no test result.
# [2] = tested on: green foxtail (Setaria viridis); settings: scale 0 to 100
# Source text: as §1, §2
# [3] = tested on: naked crabgrass (Digitaria nuda); settings: scale 0 to 100
# Source text: as §1, §2
# [4] = tested on: pitted morningglory (Ipomoea lacunosa); settings: scale 0 to 100
# Source text: as §1, §2
# [5] = tested on: surinam grass (Brachiaria decumbens); settings: scale 0 to 100
# Source text: as §1, §2
# [6] = tested on: itchgrass (Rottboellia cochinchinensis); settings: scale 0 to 100
# Source text: as §1, §2
# [7] = tested on: goosegrass (Eleusine indica); settings: scale 0 to 100
# Source text: as §1, §2
# [8] = tested on: southern (S.) sandbur (Cenchrus echinatus); settings: scale 0 to 100
# Source text: as §1, §2
# [9] = tested on: quackgrass (Elytrigia repens); settings: scale 0 to 100
# Source text: as §1, §2
# [10] = tested on: johnsongrass (Sorghum halepense); settings: scale 0 to 100
# Source text: as §1, §2
# [11] = tested on: common chickweed (Stellaria media); settings: Postemergence, scale 0 to 100
# Source text: as §1, §2
# [12] = tested on: black mustard (Brassica nigra); settings: scale 0 to 100
# Source text: as §1, §2
# [13] = tested on: broadleaf signalgrass (Brachiaria platyphylla); settings: scale 0 to 100
# Source text: as §1, §2
# [14] = tested on: barnyardgrass (Echinochloa crus-galli); settings: scale 0 to 100
# Source text: as §1, §2
smiles,measurement,setting,value
CCc1cc(-c2ccc(Cl)cc2)nn1-c1c(OC(=O)C(C)(C)C)cnn(C)c1=O [Compound 40],"Plant response rating, Ryegrass, Italian","[1]; 16 g ai/ha, Preemergence",98
same,"Plant response rating, Ryegrass, Italian","[1]; 31 g ai/ha, Preemergence",100
same,"Plant response rating, Ryegrass, Italian","[1]; 62 g ai/ha, Preemergence",100
same,"Plant response rating, Ryegrass, Italian","[1]; Postemergence, 8 g ai/ha",90
same,"Plant response rating, Ryegrass, Italian","[1]; Postemergence, 16 g ai/ha",90
same,"Plant response rating, Ryegrass, Italian","[1]; Postemergence, 31 g ai/ha",100
same,"Plant response rating, Ryegrass, Italian","[1]; Postemergence, 62 g ai/ha",100
same,"Plant response rating, Foxtail, Green","[2]; 8 g ai/ha, Preemergence",40
same,"Plant response rating, Foxtail, Green","[2]; 16 g ai/ha, Preemergence",75
same,"Plant response rating, Foxtail, Green","[2]; 31 g ai/ha, Preemergence",98
same,"Plant response rating, Foxtail, Green","[2]; 62 g ai/ha, Preemergence",100
same,"Plant response rating, Foxtail, Green","[2]; Postemergence, 8 g ai/ha",70
same,"Plant response rating, Foxtail, Green","[2]; Postemergence, 16 g ai/ha",80
same,"Plant response rating, Foxtail, Green","[2]; Postemergence, 31 g ai/ha",95
same,"Plant response rating, Foxtail, Green","[2]; Postemergence, 62 g ai/ha",98
same,"Plant response rating, Crabgrass, Naked","[3]; 8 g ai/ha, Preemergence",90
same,"Plant response rating, Crabgrass, Naked","[3]; 16 g ai/ha, Preemergence",90
same,"Plant response rating, Crabgrass, Naked","[3]; 31 g ai/ha, Preemergence",100
same,"Plant response rating, Crabgrass, Naked","[3]; 62 g ai/ha, Preemergence",100
same,"Plant response rating, Crabgrass, Naked","[3]; Postemergence, 8 g ai/ha",50
same,"Plant response rating, Crabgrass, Naked","[3]; Postemergence, 16 g ai/ha",75
same,"Plant response rating, Crabgrass, Naked","[3]; Postemergence, 31 g ai/ha",95
same,"Plant response rating, Crabgrass, Naked","[3]; Postemergence, 62 g ai/ha",100
same,"Plant response rating, Morningglory","[4]; 16 g ai/ha, Preemergence",0
same,"Plant response rating, Morningglory","[4]; 31 g ai/ha, Preemergence",0
same,"Plant response rating, Morningglory","[4]; 62 g ai/ha, Preemergence",0
same,"Plant response rating, Morningglory","[4]; Postemergence, 8 g ai/ha",0
same,"Plant response rating, Morningglory","[4]; Postemergence, 16 g ai/ha",0
same,"Plant response rating, Morningglory","[4]; Postemergence, 31 g ai/ha",0
same,"Plant response rating, Morningglory","[4]; Postemergence, 62 g ai/ha",0
same,"Plant response rating, Surinam Grass","[5]; 16 g ai/ha, Preemergence",100
same,"Plant response rating, Surinam Grass","[5]; 31 g ai/ha, Preemergence",100
same,"Plant response rating, Surinam Grass","[5]; 62 g ai/ha, Preemergence",100
same,"Plant response rating, Surinam Grass","[5]; Postemergence, 8 g ai/ha",90
same,"Plant response rating, Surinam Grass","[5]; Postemergence, 16 g ai/ha",90
same,"Plant response rating, Surinam Grass","[5]; Postemergence, 31 g ai/ha",100
same,"Plant response rating, Surinam Grass","[5]; Postemergence, 62 g ai/ha",100
same,"Plant response rating, Itchgrass","[6]; 16 g ai/ha, Preemergence",60
same,"Plant response rating, Itchgrass","[6]; 31 g ai/ha, Preemergence",75
same,"Plant response rating, Itchgrass","[6]; 62 g ai/ha, Preemergence",85
same,"Plant response rating, Itchgrass","[6]; Postemergence, 8 g ai/ha",40
same,"Plant response rating, Itchgrass","[6]; Postemergence, 16 g ai/ha",40
same,"Plant response rating, Itchgrass","[6]; Postemergence, 31 g ai/ha",80
same,"Plant response rating, Itchgrass","[6]; Postemergence, 62 g ai/ha",80
same,"Plant response rating, Goosegrass","[7]; 8 g ai/ha, Preemergence",75
same,"Plant response rating, Goosegrass","[7]; 16 g ai/ha, Preemergence",98
same,"Plant response rating, Goosegrass","[7]; 31 g ai/ha, Preemergence",100
same,"Plant response rating, Goosegrass","[7]; 62 g ai/ha, Preemergence",100
same,"Plant response rating, Goosegrass","[7]; Postemergence, 8 g ai/ha",65
same,"Plant response rating, Goosegrass","[7]; Postemergence, 16 g ai/ha",65
same,"Plant response rating, Goosegrass","[7]; Postemergence, 31 g ai/ha",80
same,"Plant response rating, Goosegrass","[7]; Postemergence, 62 g ai/ha",95
same,"Plant response rating, Sandbur, S.","[8]; 16 g ai/ha, Preemergence",98
same,"Plant response rating, Sandbur, S.","[8]; 31 g ai/ha, Preemergence",100
same,"Plant response rating, Sandbur, S.","[8]; 62 g ai/ha, Preemergence",100
same,"Plant response rating, Sandbur, S.","[8]; Postemergence, 8 g ai/ha",75
same,"Plant response rating, Sandbur, S.","[8]; Postemergence, 16 g ai/ha",85
same,"Plant response rating, Sandbur, S.","[8]; Postemergence, 31 g ai/ha",95
same,"Plant response rating, Sandbur, S.","[8]; Postemergence, 62 g ai/ha",100
same,"Plant response rating, Quackgrass","[9]; 16 g ai/ha, Preemergence",60
same,"Plant response rating, Quackgrass","[9]; 31 g ai/ha, Preemergence",80
same,"Plant response rating, Quackgrass","[9]; 62 g ai/ha, Preemergence",90
same,"Plant response rating, Quackgrass","[9]; Postemergence, 8 g ai/ha",30
same,"Plant response rating, Quackgrass","[9]; Postemergence, 16 g ai/ha",50
same,"Plant response rating, Quackgrass","[9]; Postemergence, 31 g ai/ha",70
same,"Plant response rating, Quackgrass","[9]; Postemergence, 62 g ai/ha",95
same,"Plant response rating, Johnsongrass","[10]; 16 g ai/ha, Preemergence",75
same,"Plant response rating, Johnsongrass","[10]; 31 g ai/ha, Preemergence",75
same,"Plant response rating, Johnsongrass","[10]; 62 g ai/ha, Preemergence",98
same,"Plant response rating, Johnsongrass","[10]; Postemergence, 8 g ai/ha",60
same,"Plant response rating, Johnsongrass","[10]; Postemergence, 16 g ai/ha",60
same,"Plant response rating, Johnsongrass","[10]; Postemergence, 31 g ai/ha",90
same,"Plant response rating, Johnsongrass","[10]; Postemergence, 62 g ai/ha",98
same,"Plant response rating, Chickweed",[11]; 8 g ai/ha,0
same,"Plant response rating, Chickweed",[11]; 16 g ai/ha,0
same,"Plant response rating, Chickweed",[11]; 31 g ai/ha,0
same,"Plant response rating, Mustard, Black","[12]; 8 g ai/ha, Preemergence",0
same,"Plant response rating, Mustard, Black","[12]; 16 g ai/ha, Preemergence",0
same,"Plant response rating, Mustard, Black","[12]; 31 g ai/ha, Preemergence",0
same,"Plant response rating, Mustard, Black","[12]; 62 g ai/ha, Preemergence",0
same,"Plant response rating, Mustard, Black","[12]; Postemergence, 8 g ai/ha",0
same,"Plant response rating, Mustard, Black","[12]; Postemergence, 16 g ai/ha",0
same,"Plant response rating, Mustard, Black","[12]; Postemergence, 31 g ai/ha",0
same,"Plant response rating, Mustard, Black","[12]; Postemergence, 62 g ai/ha",0
same,"Plant response rating, Signalgrass","[13]; 16 g ai/ha, Preemergence",95
same,"Plant response rating, Signalgrass","[13]; 31 g ai/ha, Preemergence",98
same,"Plant response rating, Signalgrass","[13]; 62 g ai/ha, Preemergence",100
same,"Plant response rating, Signalgrass","[13]; Postemergence, 8 g ai/ha",75
same,"Plant response rating, Signalgrass","[13]; Postemergence, 16 g ai/ha",90
same,"Plant response rating, Signalgrass","[13]; Postemergence, 31 g ai/ha",95
same,"Plant response rating, Signalgrass","[13]; Postemergence, 62 g ai/ha",100
same,"Plant response rating, Barnyardgrass","[14]; 8 g ai/ha, Preemergence",75
same,"Plant response rating, Barnyardgrass","[14]; 16 g ai/ha, Preemergence",95
same,"Plant response rating, Barnyardgrass","[14]; 31 g ai/ha, Preemergence",100
same,"Plant response rating, Barnyardgrass","[14]; 62 g ai/ha, Preemergence",100
same,"Plant response rating, Barnyardgrass","[14]; Postemergence, 8 g ai/ha",100
same,"Plant response rating, Barnyardgrass","[14]; Postemergence, 16 g ai/ha",100
same,"Plant response rating, Barnyardgrass","[14]; Postemergence, 31 g ai/ha",100
same,"Plant response rating, Barnyardgrass","[14]; Postemergence, 62 g ai/ha",100
